Tests used:
Wnt pathway = test: Cellular assay for Wnt pathway activity (luciferase reporter cell based assay); conditions: 24 h, HEK293 luciferase reporter cell line (ER-DSH, TCF dependent promoter), induced with estrogen (1 μM), read-out: 7df3 IC50
[1] = CLint (intrinsic clearance) assay, microsomal incubation; assay type: in vitro ADME, Human; conditions: human, liver microsomes, pH 7.4, human liver microsomes 0.5 mg/mL protein, NADPH, 37° C., up to 30 min
Outline: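 Test compound at 0.8 μM was incubated at 37 °C with liver microsomes at 0.5 mg/mL protein in 0.1 M potassium phosphate pH 7.4 with 1 mM MgCl2, NADPH-started, with no-cofactor controls. Acetonitrile quench at 0, 5, 10, 20 and 30 min, then LC-MS/MS peak-area decline. CLint (μL/min/mg protein) = k·1000/protein concentration.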

| Structure (SMILES) | IC50 (Wnt pathway) | microsomal CLint at 0.8 μM [1] |
| --- | --- | --- |
| CN1c2ccc(-c3cncc(Cl)c3N3CCC4(CC3)CC(=O)NN4)cc2CS1(=O)=O [Example 30, 8-[3-Chloro-5-(1-methyl-2,2-dioxo-2,3-dihydro-1H-2l6-benzo[c]isothiazol-5-yl)-pyridin-4-yl]-1,2,8-triaza-spiro[4.5]decan-3-one] | 0.013 µM | 27 µL/min/mg |
| O=C1NCCC12CCN(c1c(Cl)cncc1-c1ccc(-c3cnn([C@H]4CCC[C@@H]4O)c3)cc1)CC2 (racemic) [Example 56, 8-(3-Chloro-5-{4-[1-((1S,2S)-2-hydroxy-cyclopentyl)-1H-pyrazol-4-yl]-phenyl}-pyridin-4-yl)-2,8-diaza-spiro[4.5]decan-1-one] | 0.0076 µM | 44 µL/min/mg |
| CC(C)n1cc(-c2ccc(-c3cncc(Cl)c3N3CCC4(CC3)NCNC4=O)cc2)cn1 [Example 78, 8-{3-Chloro-5-[4-(1-isopropyl-1H-pyrazol-4-yl)-phenyl]-pyridin-4-yl}-1,3,8-triaza-spiro[4.5]decan-4-one] | 0.0038 µM | 30 µL/min/mg |
| O=C1Cc2ccc(-c3cncc(Cl)c3N3CCC4(CCNC4=O)CC3)cc2N1 [Example 64, 8-[3-Chloro-5-(2-oxo-2,3-dihydro-1H-indol-6-yl)-pyridin-4-yl]-2,8-diaza-spiro[4.5]decan-1-one] | 0.019 µM | 49 µL/min/mg |
